The record followed here is article PMC11013662, “New Thiosemicarbazide Derivatives with Multidirectional Biological Action” (Molecules, 2024).

The structures appear in SMILES notation. Converted amounts (≈) assume the structure as drawn. A value given as a limit tells only on which side of the number the result lay.

As a reminder, the MIC is the lowest concentration that inhibits growth of the organism. In general, MBC refers to the smallest concentration meeting the test's criterion for killing. Read a high MBC as less potent killing.

Test [1] relates to Staphylococcus spp. strains. Briefly: Broth microdilution MIC / MBC, staphylococci. In kind it is cell-based. Here is the method: (§1) The microdilution method was used to determine the MIC values of newly synthesized compounds. The antimicrobial activity of the thiosemicarbazides series was tested on ten reference bacterial strains purchased from the American Type Culture Collection (ATCC). Seven Gram-positive reference strains (S. aureus ATCC 29213, S. aureus ATCC 43300, S. aureus ATCC 6538, S. aureus ATCC 25923, S. epidermidis ATCC 12228, M. luteus ATCC 10240, and B. cereus ATCC 10876) and three Gram-negative reference bacteria (K. pneumoniae ATCC 13883, E. coli ATCC 25922, S. typhimurium ATCC 14028) were used. […]
(§2) A 96-well microtiter plate and microbroth two-fold dilution method was used to determine the minimum inhibitory concentration (MIC) according to the EUCAST (European Committee on Antimicrobial Susceptibility Testing) reference recommendation. […] After incubation, the growth of bacteria was monitored by a Biotek ELx800 (Biokom, Janki, Poland) spectrophotometer at 600 nm (OD600). […]
(§3) The in vitro antimicrobial activity of the tested compounds was determined by the MIC, which was defined as the lowest concentration of the compound tested at which no visible growth of the test bacteria was observed. […] MBC was determined after the broth dilution period of an MIC test has been completed. […] The MBC values were determined by observing the first clear area on the agar plate that has no observable bacterial growth.
(In general: In broth dilution the organism is exposed to a series of concentrations in liquid medium.)

A further test concerns Gram-positive bacteria. Briefly: Broth microdilution MIC / MBC, summary over Gram-positive strains. In kind it is cell-based. Here is the method:
as §1, §2, §3

On to `O=C(NNC(=S)Nc1cccc(Cl)c1)c1cccc(C(F)(F)F)c1` [Compound 3a, 4-(3-Chlorophenyl)-1-(3-trifluoromethylbenzoyl)thiosemicarbazide], for which the MBC/MIC ratio in test [1] (against staphylococci, bacteriostatic) is more than 4. The molecule further came in with a minimal inhibitory concentration (MIC) in test [1] (all Staphylococcus spp. strains except MRSA ATCC 43300) of 1.95 µg/mL (≈ 5.22 µM).

Consider `O=C(NNC(=S)Nc1cccc(F)c1)c1cccc(C(F)(F)F)c1` [Compound 3e, 1-(3-Trifluoromethylbenzoyl)-4-(3-fluorophenyl)thiosemicarbazide], for which, in the test with Gram-positive bacteria, the MBC was more than 1000 µg/mL and the MIC range was 7.8 to 31.25 µg/mL.
